Laboratory results from ChEMBL document CHEMBL1201862, “PubChem BioAssay data set” (2004).
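These data come from cells grown in 96-well plates and exposed to compound for 48 hours at five concentrations. GI50: concentration for 50% inhibition of growth.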 The source made the active and inactive calls. No stated cut-off is given here; in the data, active = GI50 up to about 1.1 µM and inactive = higher.

How the values were obtained:
Assay in all cases: DTP human tumour cell line panel, 48 h
SNB-19 = test system: SNB-19
NCI-H226 = test system: NCI-H226
M14 = test system: M14
MCF7 = test system: MCF7
NCI/ADR-RES = test system: NCI/ADR-RES
PC-3 = test system: PC-3
LOX IMVI = test system: LOX IMVI
RPMI-8226 = test system: RPMI-8226
MOLT-4 = test system: MOLT-4
SW-620 = test system: SW-620
IGROV-1 = test system: IGROV-1
MDA-N = test system: MDA-N
KM12 = test system: KM12
UO-31 = test system: UO-31
OVCAR-5 = test system: OVCAR-5
SN12C = test system: SN12C
UACC-62 = test system: UACC-62
Malme-3M = test system: Malme-3M
786-0 = test system: 786-0
SK-MEL-5 = test system: SK-MEL-5

Compound | GI50 (SNB-19) | GI50 (NCI-H226) | GI50 (M14) | GI50 (MCF7) | GI50 (NCI/ADR-RES) | GI50 (PC-3) | GI50 (LOX IMVI) | GI50 (RPMI-8226) | GI50 (MOLT-4) | GI50 (SW-620) | GI50 (IGROV-1) | GI50 (MDA-N) | GI50 (KM12) | GI50 (UO-31) | GI50 (OVCAR-5) | GI50 (SN12C) | GI50 (UACC-62) | GI50 (Malme-3M) | GI50 (786-0) | GI50 (SK-MEL-5)
Cc1ccc(S(=O)(=O)N2CCSCCSCCSCCSCC2)cc1 | 24.8 µM (inactive) | > 49.9 µM (inactive) | 61.4 µM (inactive) | > 72.9 µM (inactive) | 32 µM (inactive) | 55 µM (inactive) | 59.6 µM (inactive) | 77.1 µM (inactive) | > 82.2 µM (inactive) | > 100 µM (inactive) | 48.4 µM (inactive) | > 89.7 µM (inactive) | > 100 µM (inactive) | 50.2 µM (inactive) | > 100 µM (inactive) | > 58.5 µM (inactive) | 17.1 µM (inactive) | > 72.8 µM (inactive) | 21.1 µM (inactive) | 43.1 µM (inactive)
COc1cc2c(c(O)c1OC)C(=O)[C@@H]1CCC(=O)N1C2 | > 100 µM (inactive) | > 100 µM (inactive) | > 100 µM (inactive) | > 100 µM (inactive) | > 100 µM (inactive) | > 100 µM (inactive) | > 100 µM (inactive) | > 100 µM (inactive) | > 100 µM (inactive) | > 100 µM (inactive) | > 100 µM (inactive) | > 100 µM (inactive) | > 100 µM (inactive) | > 100 µM (inactive) | > 100 µM (inactive) | > 100 µM (inactive) | > 100 µM (inactive) | > 100 µM (inactive) | > 100 µM (inactive) | > 100 µM (inactive)
COC1/C=C/C(C)C(OC)CC(O)/C=C/C(C)C(C(C)C(OC)C(C)CCC(=O)C(C)C(C/C=C/N(C)C=O)OC)OC(=O)/C=C/C=C(\C)CC(OC)CC2=CC(=O)O[C@@H](C(C)C(OC)C1)[C@H]2O (stereo not given in full) | 0.0962 µM (active) | 0.122 µM (active) | 0.056 µM (active) | 0.0982 µM (active) | 0.195 µM (active) | 0.0873 µM (active) | 0.0223 µM (active) | 0.0536 µM (active) | 0.214 µM (active) | 0.0664 µM (active) | 0.0708 µM (active) | 0.0951 µM (active) | 0.0753 µM (active) | 0.0998 µM (active) | 0.177 µM (active) | 0.379 µM (active) | 0.148 µM (active) | 0.069 µM (active) | 0.0977 µM (active) | 0.125 µM (active)
O=C(O)C1C(C(=O)O)C23CC2(C(=O)O)C2(C(=O)O)CCC3=C3CCCC312 (stereo not given) | 7.93 µM (inactive) | 10.4 µM (inactive) | 6.84 µM (inactive) | 11.7 µM (inactive) | 20.7 µM (inactive) | 5.45 µM (inactive) | 10.6 µM (inactive) | 6.01 µM (inactive) | 4.99 µM (inactive) | 6.34 µM (inactive) | 7.93 µM (inactive) | 4.79 µM (inactive) | 14 µM (inactive) | 8.97 µM (inactive) | 16.6 µM (inactive) | 8.87 µM (inactive) | 10.5 µM (inactive) | 4.21 µM (inactive) | 10.3 µM (inactive) | 5.22 µM (inactive)
CCOC(=O)/C(C(N)=O)=C(/O)c1cnccn1 | > 100 µM (inactive) | > 100 µM (inactive) | > 100 µM (inactive) | > 100 µM (inactive) | > 100 µM (inactive) | > 100 µM (inactive) | > 100 µM (inactive) | > 100 µM (inactive) | > 100 µM (inactive) | > 100 µM (inactive) | > 100 µM (inactive) | > 100 µM (inactive) | > 100 µM (inactive) | > 100 µM (inactive) | > 100 µM (inactive) | > 100 µM (inactive) | > 100 µM (inactive) | > 100 µM (inactive) | > 100 µM (inactive) | > 100 µM (inactive)
COc1cc(C2C(Cl)C(=O)N2NC(=O)c2ccc(NC(C)=O)cc2OC)ccc1O (stereo not given) | 17.4 µM (inactive) | 10.6 µM (inactive) | 16.3 µM (inactive) | 19.3 µM (inactive) | 37.5 µM (inactive) | 19.4 µM (inactive) | 7.28 µM (inactive) | 1.94 µM (inactive) | 3.96 µM (inactive) | 24.7 µM (inactive) | 17.5 µM (inactive) | 20 µM (inactive) | 20.4 µM (inactive) | 25.1 µM (inactive) | 13.2 µM (inactive) | 17.9 µM (inactive) | 18.1 µM (inactive) | 24.4 µM (inactive) | 15.1 µM (inactive) | 15.2 µM (inactive)
Cc1nc(Cl)c(CBr)c(Cl)n1 | 3.68 µM (inactive) | 2.7 µM (inactive) | 0.427 µM (active) | 0.769 µM (active) | 2.41 µM (inactive) | 1.63 µM (inactive) | 0.585 µM (active) | 0.889 µM (active) | 0.33 µM (active) | 0.351 µM (active) | 1.72 µM (inactive) | 1.44 µM (inactive) | 1.03 µM (active) | 1.68 µM (inactive) | 2.05 µM (inactive) | 1.73 µM (inactive) | 1.38 µM (inactive) | 0.838 µM (active) | 0.275 µM (active) | 0.914 µM (active)
N[C@H](C(=O)O)[C@H]1ON=C(Cl)[C@@H]1O | 5.58 µM (inactive) | 45.1 µM (inactive) | 6.03 µM (inactive) | 2.6 µM (inactive) | 6.49 µM (inactive) | 7.03 µM (inactive) | 8.71 µM (inactive) | 2.43 µM (inactive) | 1.38 µM (inactive) | 2.16 µM (inactive) | 2.84 µM (inactive) | 2.95 µM (inactive) | 0.612 µM (active) | 18.3 µM (inactive) | 5.6 µM (inactive) | 4.63 µM (inactive) | 3.3 µM (inactive) | 24.1 µM (inactive) | 6.61 µM (inactive) | 0.929 µM (active)
OCCN1CN(c2nc(N3CN(CCO)C3)nc(N3CN(CCO)C3)n2)C1 | 23 µM (inactive) | 24.8 µM (inactive) | 17.5 µM (inactive) | 21.3 µM (inactive) | 31.1 µM (inactive) | 22.1 µM (inactive) | 14.8 µM (inactive) | 27.6 µM (inactive) | 33.7 µM (inactive) | 30 µM (inactive) | 30.1 µM (inactive) | 18.1 µM (inactive) | 21.4 µM (inactive) | 20 µM (inactive) | 23.1 µM (inactive) | 18 µM (inactive) | 14.5 µM (inactive) | 21.5 µM (inactive) | 23.8 µM (inactive) | 19.2 µM (inactive)
C[C@H]1CCC2C(OC(=O)[C@@H]2CN(C)C)[C@]2(C)C(=O)C=CC12O (stereo not given in full) | 22.9 µM (inactive) | 7.01 µM (inactive) | 4.06 µM (inactive) | 7.5 µM (inactive) | 2 µM (inactive) | 14.2 µM (inactive) | 4.59 µM (inactive) | 2.67 µM (inactive) | 2.82 µM (inactive) | 3.24 µM (inactive) | 15.8 µM (inactive) | 3.48 µM (inactive) | 4.69 µM (inactive) | 10.9 µM (inactive) | 14.1 µM (inactive) | 4.09 µM (inactive) | 2.55 µM (inactive) | 3.7 µM (inactive) | 5.26 µM (inactive) | 7.16 µM (inactive)
